In PubChem BioAssay (NCI) one finds TGI data, which are given here for 11 compounds.

What all share (assay): NCI tumour cell line growth inhibition, 48 h
Test [1] deals with HOP-18 NSCLC.
For test [2], the system named is DMS 273 small cell lung.
Test [3] concerns M19-MEL melanoma.
The subject of test [4] is KM20L2 colon.
Test [5] relates to XF 498 CNS.
Test [6] deals with RXF-631 renal.
In test [7] the test system is P388 leukemia.
For test [8], the system named is SN12K1 renal.
Test [9] relates to P388/ADR leukemia.

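Step 1: Grow cells in 96-well plates. Step 2: Expose to compound for 48 hours at 5 concentrations. Step 3: Interpolate endpoints linearly; if unreached, use highest concentration. Definition used: TGI = concentration required for complete inhibition of growth.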 A value given as a limit tells only on which side of the number the result lay.

For the compound `O=c1[nH]c(=O)n(C2CC(O)C(CO)O2)cc1C#Cc1ccc(F)cc1` (stereo not drawn), the TGI in test [1], in test [2], in [3], in test [4] and in test [5] was above 100 µM throughout.

For `OC12c3ccccc3C3CCC4(OCCO4)C3C1c1ccccc12` (stereo not drawn), the TGI in [1], in test [2], in test [3] and in test [4] was above 100 µM each time.

On to `COc1ccc2[nH]c3c(C)cc([N+](=O)[O-])c(C)c3c2c1`, for which the TGI is above 100 µM in test [1]; 45.4 µM in test [2]; 45.1 µM in test [3]; above 100 µM in test [4]; above 100 µM in [5].

With `COc1ccc2c(c1)c(=O)c1c(NCCN(C)C)ccc3nnn2c31`, the TGI is 7.35 µM in [1], 20.8 µM in test [3], 14.7 µM in test [4] and 14 µM in [6].

Turning to `CC(CN(C)C)C(=O)c1ccccc1` (stereo not drawn), the TGI was above 100 µM in test [1]; above 100 µM in test [2]; 35.4 µM in test [3]; above 87.5 µM in test [4]; above 100 µM in [6]; 45 µM in test [5].

For the compound `C#CC1(O)CCC2[C@@H]3CCc4cc(Oc5nc(F)nc(-c6c7ccccc7cn6C)n5)ccc4C3CC[C@@]21C` (stereo partly drawn), the TGI in test [1], in [2], in test [3], in [4] and in [5] was above 100 µM each time.

In the case of `COc1ccc(C2C3CCCC(C3=O)C(c3ccc(OC)cc3)N2N=O)cc1` (stereo not drawn), the TGI in [1] was 31 µM; in [7], 42.9 µM; in test [2] it was 43.6 µM; in test [3], 99.2 µM; in test [4], above 100 µM; in test [8], above 79.6 µM. Moreover, the TGI is 38.3 µM in test [9] and 72.4 µM in [5].

Regarding `O=C(OC/C=C1C=C(OC(=O)c2ccccc2)/C(=N/N(C(=O)c2ccccc2)c2ccccc2)O\1)c1ccccc1`, the TGI in test [2] amounted to 24.1 µM; in [3], 18.8 µM; in test [5], 33.7 µM.

Take `COc1ccc(C(=O)N/N=C/c2c(C)n(C)n(-c3ccccc3)c2=O)cc1`: the TGI in [1], in test [2], in test [3], in [4] and in [5] was above 100 µM in each case.

For `CCn1c2c(c3ccccc31)C(c1ccccc1)CC1C(=O)N(c3ccccc3)C(=O)C21` (stereo not drawn), the TGI in test [2] is above 100 µM; in [3], above 100 µM; in [4] it was above 100 µM; in test [5], 37.2 µM.

In the case of `CCCN(CCC)c1c([N+](=O)[O-])cc(C(=O)N(CCO)CCO)cc1[N+](=O)[O-]`, the TGI in test [1], in test [2], in [3] and in test [5] was above 100 µM in each case.
